Test results as given in patent US20080102497A1, “ENZYMATIC HYDROLYSIS OF STARCH” (priority 2006, published 2008).
Values joined by “and” are separate entries in the source; they are usually repeats but may differ in a detail not shown here. Equal entries are not always repeated. Where two headings read alike, the source gives them in different places.

How the values were obtained:
[1] = target: T1, glucoamylase from Aspergillus Niger (Aspergillus niger, UniProt P69328); conditions: pH 5.2, 37° C., 10 min
Procedure: The separate reaction mixtures were incubated at 37° C. for 10 minutes. The control reaction mixture contained enzyme, buffer, and starch but no manganese ion. The starch hydrolysis reaction was stopped by combining the reaction mixture with a solution containing DNSA and heating for 30 min at 85° C. The absorbance of the control and test samples was measured at 562 nm to monitor the amount of reducing sugar in each sample.

[2] = target: α-amylase from Bacillus licheniformis (Bacillus licheniformis, UniProt P06278); assay: hydrolysis of cooked starches from different botanical sources; assay type: biochemical; conditions: pH 5.2, 37° C., 10 min
[3] = target: α-amylase from Bacillus amyloliquefaciens (Bacillus amyloliquefaciens, UniProt P00692); assay: hydrolysis of cooked dent corn starch; assay type: biochemical; conditions: 0.1 mM Mn^++; cooked dent corn starch 0.5%; pH 5.2; 37° C., 10 min
Procedure: (§1) The separate reaction mixtures were incubated at 37° C. for 10 minutes. The control reaction mixtures contained enzyme, buffer, and starch but no manganese ion. The starch hydrolysis reaction was stopped by combining the reaction mixture with a solution containing DNSA and heating for 30 min at 85° C. The absorbance of the control and test samples was measured at 562 nm to monitor the amount of reducing sugar in each sample.

[4] = target: T2, β-amylase from sweet potato (Ipomoea batatas, UniProt P10537); assay: hydrolysis of cooked dent corn starch; assay type: biochemical; conditions: cooked dent corn starch 0.5%, pH 5.2, 37° C., 10 min
T2 construct: purchased Sigma A-7005
Procedure: as §1

β-amylase from barley [5] = target: T3, β-amylase from barley (Hordeum vulgare, UniProt P16098); assay: hydrolysis of cooked starches from different botanical sources; assay type: biochemical; conditions: pH 5.2, 37° C., 10 min
Procedure: The control reaction mixture contained enzyme, buffer, and starch but no manganese ion. The starch hydrolysis reaction was stopped by combining the reaction mixture with 3,5 dinitrosalicylic acid (DNSA) and heating for 30 min at 85° C. The absorbance of the control and test samples was measured at 562 nm to monitor the amount of reducing sugar in each sample.

β-amylase from barley [6] = target: T3, β-amylase from barley; assay: pH effect on hydrolysis of cooked dent corn starch; assay type: biochemical; conditions: 1 mM Mn^++; for Relative Activity: cooked dent corn starch 0.5%, 37° C., 10 min, control at pH 5 = 100
Procedure: The separate reaction mixtures were then incubated at 37° C. for 10 minutes. The control reaction mixture contained enzyme, buffer, and starch but no manganese ion. The starch hydrolysis reaction was stopped by combining the reaction mixture with a solution containing DNSA and heating for 30 min at 85° C. The absorbance of the control and test samples was measured at 562 nm to monitor the amount of reducing sugar in each sample.

[7] = target: T1, glucoamylase from Aspergillus Niger; conditions: for Relative Activity: washed 5 times before enzyme, pH 5.3, 37° C., 20 min
Procedure: Thereafter 40 μl of the buffer and metal solution was added to 15 mg raw corn starch and the resulting mixture was pre-incubated at 20° C. for 20 minutes. The starch mixture was washed 5 times with excess buffer, followed by centrifugation, and removal of the supernatant. Then an enzyme solution containing buffer and the glucoamylase from Aspergillus niger was added to the washed starch and the reaction mixture incubated at 37° C. for 20 minutes. The control reaction mixture contained substrate, enzyme, and buffer but no manganese ion. The starch hydrolysis reaction was stopped by combining the reaction mixture with a solution containing DNSA and heating for 30 min at 85° C. The absorbance of the control and test samples was measured at 562 nm to monitor the amount of reducing sugar in each sample.

β-amylase from barley [8] = target: T3, β-amylase from barley; assay: hydrolysis of cooked dent corn starch; assay type: biochemical; conditions: cooked dent corn starch 0.5%, pH 5.2, 37° C., 10 min
Procedure: as §1

[9] = test system: glucoamylase from Rhizopus sp.; assay: hydrolysis of cooked dent corn starch; assay type: biochemical; conditions: cooked dent corn starch 0.5%, pH 5.2, 37° C., 10 min
Procedure: as §1

[10] = 0.01 mM Mn^++, cooked potato starch 0.5%
[11] = 0.01 mM Mn^++, cooked rice starch 0.5%
[12] = 0.01 mM Mn^++, cooked soluble potato starch 0.5%
[13] = 0.1 mM Mn^++, cooked barley starch 0.5%
[14] = 0.1 mM Mn^++, cooked pea starch 0.5%
[15] = 0.1 mM Mn^++, cooked potato starch 0.5%
[16] = 0.1 mM Mn^++, cooked rice starch 0.5%
[17] = 0.1 mM Mn^++, cooked soluble potato starch 0.5%
[18] = 0.1 mM Mn^++, cooked tapioca starch 0.5%
[19] = 0.1 mM Mn^++, cooked wheat starch 0.5%
[20] = 1 mM Mn^++, cooked pea starch 0.5%
[21] = 1 mM Mn^++, cooked potato starch 0.5%
[22] = 1 mM Mn^++, cooked rice starch 0.5%
[23] = 1 mM Mn^++, cooked soluble potato starch 0.5%
[24] = 1 mM Mn^++, cooked tapioca starch 0.5%
[25] = 1 mM Mn^++, cooked wheat starch 0.5%
[26] = 10 mM Mn^++, cooked barley starch 0.5%
[27] = 10 mM Mn^++, cooked pea starch 0.5%
[28] = 10 mM Mn^++, cooked potato starch 0.5%
[29] = 10 mM Mn^++, cooked rice starch 0.5%
[30] = 10 mM Mn^++, cooked wheat starch 0.5%

T1 sequence (P69328 25-640): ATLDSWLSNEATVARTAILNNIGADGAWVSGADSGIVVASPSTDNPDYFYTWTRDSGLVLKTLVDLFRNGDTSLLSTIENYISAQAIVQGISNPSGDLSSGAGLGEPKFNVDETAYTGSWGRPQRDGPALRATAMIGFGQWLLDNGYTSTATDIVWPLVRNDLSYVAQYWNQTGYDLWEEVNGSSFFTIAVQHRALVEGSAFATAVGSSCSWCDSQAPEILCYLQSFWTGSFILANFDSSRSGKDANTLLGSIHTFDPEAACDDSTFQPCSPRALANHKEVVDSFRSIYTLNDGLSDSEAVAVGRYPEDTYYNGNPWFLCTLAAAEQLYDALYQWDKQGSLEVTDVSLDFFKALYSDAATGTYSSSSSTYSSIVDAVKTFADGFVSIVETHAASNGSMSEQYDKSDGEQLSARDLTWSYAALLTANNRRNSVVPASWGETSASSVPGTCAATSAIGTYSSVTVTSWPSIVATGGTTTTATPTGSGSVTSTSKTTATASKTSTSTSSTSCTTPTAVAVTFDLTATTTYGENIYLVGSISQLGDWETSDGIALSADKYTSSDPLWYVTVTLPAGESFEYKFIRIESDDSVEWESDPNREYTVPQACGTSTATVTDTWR
T3 sequence (P16098 whole entry): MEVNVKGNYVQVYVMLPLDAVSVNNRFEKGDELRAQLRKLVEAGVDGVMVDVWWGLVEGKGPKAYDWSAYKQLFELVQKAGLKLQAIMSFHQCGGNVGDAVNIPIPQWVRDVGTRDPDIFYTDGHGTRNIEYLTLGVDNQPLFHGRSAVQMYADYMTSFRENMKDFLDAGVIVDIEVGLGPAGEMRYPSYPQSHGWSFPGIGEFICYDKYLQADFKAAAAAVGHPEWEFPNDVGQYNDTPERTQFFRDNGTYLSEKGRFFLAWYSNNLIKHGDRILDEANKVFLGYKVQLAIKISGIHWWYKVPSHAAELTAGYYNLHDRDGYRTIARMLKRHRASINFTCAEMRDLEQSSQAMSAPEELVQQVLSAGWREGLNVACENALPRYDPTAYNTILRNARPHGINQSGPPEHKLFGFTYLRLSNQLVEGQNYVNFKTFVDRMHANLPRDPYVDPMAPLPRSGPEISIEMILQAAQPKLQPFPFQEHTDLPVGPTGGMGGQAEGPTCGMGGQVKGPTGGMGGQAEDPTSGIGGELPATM
α-amylase from Bacillus licheniformis, sequence (P06278 30-512): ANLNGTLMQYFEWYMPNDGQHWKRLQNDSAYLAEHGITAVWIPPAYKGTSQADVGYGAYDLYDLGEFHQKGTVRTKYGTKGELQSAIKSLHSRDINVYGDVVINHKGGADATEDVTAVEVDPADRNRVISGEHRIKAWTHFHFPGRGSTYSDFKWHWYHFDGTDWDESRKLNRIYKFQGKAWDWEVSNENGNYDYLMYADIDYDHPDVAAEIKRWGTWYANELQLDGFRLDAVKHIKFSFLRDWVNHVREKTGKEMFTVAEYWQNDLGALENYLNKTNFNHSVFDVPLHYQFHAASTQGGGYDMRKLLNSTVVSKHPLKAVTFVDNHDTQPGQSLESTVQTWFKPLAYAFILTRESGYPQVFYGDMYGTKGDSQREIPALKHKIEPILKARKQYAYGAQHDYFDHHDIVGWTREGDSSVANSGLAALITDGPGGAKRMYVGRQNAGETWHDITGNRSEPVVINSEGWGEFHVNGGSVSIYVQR
T2 sequence (P10537 whole entry): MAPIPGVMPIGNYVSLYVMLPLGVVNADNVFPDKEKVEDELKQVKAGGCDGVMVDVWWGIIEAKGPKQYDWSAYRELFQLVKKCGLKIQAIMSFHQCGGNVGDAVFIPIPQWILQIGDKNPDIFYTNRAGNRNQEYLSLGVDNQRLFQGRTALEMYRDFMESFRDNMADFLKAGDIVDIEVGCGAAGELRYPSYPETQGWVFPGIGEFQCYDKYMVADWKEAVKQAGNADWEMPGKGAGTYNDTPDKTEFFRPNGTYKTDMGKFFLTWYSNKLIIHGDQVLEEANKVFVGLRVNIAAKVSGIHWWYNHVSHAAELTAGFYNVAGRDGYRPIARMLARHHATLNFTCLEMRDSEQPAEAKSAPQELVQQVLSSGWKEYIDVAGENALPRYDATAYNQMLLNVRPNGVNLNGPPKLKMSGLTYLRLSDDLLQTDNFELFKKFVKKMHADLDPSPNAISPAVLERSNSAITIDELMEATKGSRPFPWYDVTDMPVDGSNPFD
α-amylase from Bacillus amyloliquefaciens, sequence (P00692 32-514): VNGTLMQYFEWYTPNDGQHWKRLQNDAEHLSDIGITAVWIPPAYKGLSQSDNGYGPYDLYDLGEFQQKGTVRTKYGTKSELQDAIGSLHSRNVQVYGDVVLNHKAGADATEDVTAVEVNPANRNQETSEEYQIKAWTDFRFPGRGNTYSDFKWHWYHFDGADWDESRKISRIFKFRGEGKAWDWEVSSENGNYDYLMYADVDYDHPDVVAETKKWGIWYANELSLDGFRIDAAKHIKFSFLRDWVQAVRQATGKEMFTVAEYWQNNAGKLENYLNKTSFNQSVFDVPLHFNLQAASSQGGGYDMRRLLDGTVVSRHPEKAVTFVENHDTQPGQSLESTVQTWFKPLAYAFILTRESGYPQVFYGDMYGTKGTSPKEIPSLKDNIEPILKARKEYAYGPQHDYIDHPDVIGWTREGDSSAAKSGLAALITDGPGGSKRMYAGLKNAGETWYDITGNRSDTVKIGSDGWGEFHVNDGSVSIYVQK

[Mn+2] [Mn^++, manganese ions]
Relative Activity ([1]; 0.01 mM Mn^++, cooked dent corn starch 0.5%): 113.3%
Relative Activity ([1]; 0.01 mM Mn^++, cooked high-amylose V corn starch 0.5%): 119.2%
Relative Activity ([1]; 0.01 mM Mn^++, cooked soluble corn starch 0.5%): 119.1%
Relative Activity ([1]; 0.01 mM Mn^++, cooked waxy corn starch 0.5%): 113.0%
Relative Activity ([1]; 0.1 mM Mn^++, cooked dent corn starch 0.5%): 126.1%
Relative Activity ([1]; 0.1 mM Mn^++, cooked high-amylose V corn starch 0.5%): 130.9%
Relative Activity ([1]; 0.1 mM Mn^++, cooked soluble corn starch 0.5%): 129.1%
Relative Activity ([1]; 0.1 mM Mn^++, cooked waxy corn starch 0.5%): 130.1%
Relative Activity ([1]; 1 mM Mn^++, cooked dent corn starch 0.5%): 148.4%
Relative Activity ([1]; 1 mM Mn^++, cooked high-amylose V corn starch 0.5%): 141.3%
Relative Activity ([1]; 1 mM Mn^++, cooked soluble corn starch 0.5%): 144.8%
Relative Activity ([1]; 1 mM Mn^++, cooked waxy corn starch 0.5%): 147.2%
Relative Activity ([1]; 10 mM Mn^++, cooked dent corn starch 0.5%): 186.9%
Relative Activity ([1]; 10 mM Mn^++, cooked high-amylose V corn starch 0.5%): 193.1%
Relative Activity ([1]; 10 mM Mn^++, cooked soluble corn starch 0.5%): 178.3%
Relative Activity ([1]; 10 mM Mn^++, cooked waxy corn starch 0.5%): 200.3%
Relative Activity [2, 10]: 109.9%
Relative Activity [2, 11]: 115.5%
Relative Activity [2, 12]: 118.3%
Relative Activity [2, 13]: 129.2%
Relative Activity [2, 14]: 129.5%
Relative Activity [2, 15]: 117.5%
Relative Activity [2, 16]: 126.0%
Relative Activity [2, 17]: 147.6%
Relative Activity [2, 18]: 119.2%
Relative Activity [2, 19]: 118.2%
Relative Activity [2, 20]: 143.9%
Relative Activity [2, 21]: 128.7%
Relative Activity [2, 22]: 129.6%
Relative Activity [2, 23]: 142.0%
Relative Activity [2, 24]: 121.5%
Relative Activity [2, 25]: 153.0%
Relative Activity [2, 26]: 142.2%
Relative Activity [2, 27]: 182.3%
Relative Activity [2, 28]: 160.2%
Relative Activity [2, 29]: 157.7%
Relative Activity [2, 30]: 142.1%
Relative Activity [3]: 121.0% and 120.4%
Relative Activity ([4]; 0.01 mM Mn^++): 117.6%
Relative Activity ([4]; 0.1 mM Mn^++): 131.4%
Relative Activity ([4]; 1 mM Mn^++): 148.0%
Relative Activity ([4]; 10 mM Mn^++): 215.0%
Relative Activity (β-amylase from barley [5]; 0.01 mM Mn^++, cooked barley starch 0.5%): 115.2%
Relative Activity (β-amylase from barley [5]; 0.01 mM Mn^++, cooked pea starch 0.5%): 108.1%
Relative Activity (β-amylase from barley [5]; [10]): 109.5%
Relative Activity (β-amylase from barley [5]; [11]): 107.8%
Relative Activity (β-amylase from barley [5]; [12]): 117.4%
Relative Activity (β-amylase from barley [5]; 0.01 mM Mn^++, cooked tapioca starch 0.5%): 111.3%
Relative Activity (β-amylase from barley [5]; 0.01 mM Mn^++, cooked wheat starch 0.5%): 120.2%
Relative Activity (β-amylase from barley [5]; [13]): 121.1%
Relative Activity (β-amylase from barley [5]; [14]): 122.3%
Relative Activity (β-amylase from barley [5]; [15]): 117.5%
Relative Activity (β-amylase from barley [5]; [16]): 123.9%
Relative Activity (β-amylase from barley [5]; [17]): 136.0%
Relative Activity (β-amylase from barley [5]; [18]): 122.1%
Relative Activity (β-amylase from barley [5]; [19]): 141.9%
Relative Activity (β-amylase from barley [5]; 1 mM Mn^++, cooked barley starch 0.5%): 154.0%
Relative Activity (β-amylase from barley [5]; [20]): 139.2%
Relative Activity (β-amylase from barley [5]; [21]): 135.4%
Relative Activity (β-amylase from barley [5]; [22]): 138.1%
Relative Activity (β-amylase from barley [5]; [23]): 154.1%
Relative Activity (β-amylase from barley [5]; [24]): 135.6%
Relative Activity (β-amylase from barley [5]; [25]): 151.9%
Relative Activity (β-amylase from barley [5]; [26]): 197.5%
Relative Activity (β-amylase from barley [5]; [27]): 253.4%
Relative Activity (β-amylase from barley [5]; [28]): 175.1%
Relative Activity (β-amylase from barley [5]; [29]): 173.4%
Relative Activity (β-amylase from barley [5]; 10 mM Mn^++, cooked soluble potato starch 0.5%): 165.6%
Relative Activity (β-amylase from barley [5]; 10 mM Mn^++, cooked tapioca starch 0.5%): 180.5%
Relative Activity (β-amylase from barley [5]; [30]): 221.1%
pH range of greatest Mn^++ induced enhancement (β-amylase from barley [6]; cooked dent corn starch, pH 3-8 tested): 5.0-6.0
Relative Activity (β-amylase from barley [6]; pH 3): 0%
Relative Activity (β-amylase from barley [6]; pH 4): 105.8%
Relative Activity (β-amylase from barley [6]; pH 5): 173.1%
Relative Activity (β-amylase from barley [6]; pH 6): 176.9%
Relative Activity (β-amylase from barley [6]; pH 7): 165.4%
Relative Activity (β-amylase from barley [6]; pH 8): 74%
Relative Activity ([7]; raw corn starch pre-incubated with 0.01 mM Mn^++): 89.1%
Relative Activity ([7]; raw corn starch pre-incubated with 0.1 mM Mn^++): 84.2%
Relative Activity ([7]; raw corn starch pre-incubated with 1 mM Mn^++): 95.0%
Relative Activity ([7]; raw corn starch pre-incubated with 10 mM Mn^++): 89.1%
cause of Mn^++-induced enhancement (in words) ([7]; starch pre-incubated with Mn^++ and washed): not caused by the action of Mn^++ on the starch
Relative Activity (β-amylase from barley [8]; 0.01 mM Mn^++): 123.5%
Relative Activity (β-amylase from barley [8]; 0.1 mM Mn^++): 135.3%
Relative Activity (β-amylase from barley [8]; 1 mM Mn^++): 149.8%
Relative Activity (β-amylase from barley [8]; 10 mM Mn^++): 210.1%
Relative Activity ([9]; 0.01 mM Mn^++): 112.0%
Relative Activity ([9]; 0.1 mM Mn^++): 123.8%
Relative Activity ([9]; 1 mM Mn^++): 145.1%
Relative Activity ([9]; 10 mM Mn^++): 223.5%
